ChEMBL document CHEMBL1201862, “PubChem BioAssay data set” (2004)
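Values below derive from 48-hour exposures of cells grown in 96-well plates, with endpoints linearly interpolated between the two concentrations bracketing the appropriate inhibition level. GI50 = concentration required for 50% inhibition of growth.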 Activity calls are given as the source filed them. Cut-off read from the data, not from the text of the source: active = GI50 up to about 1.1 µM and inactive = higher.

Key:
Assay in all cases: NCI tumour cell line growth inhibition, 48 h
HL-60 = system: HL-60
HCT-15 = system: HCT-15
RPMI-8226 = system: RPMI-8226
NCI-H522 = system: NCI-H522
NCI-H23 = system: NCI-H23
IGROV-1 = system: IGROV-1
NCI-H460 = system: NCI-H460
SR = system: SR
U-251 = system: U-251
SF-268 = system: SF-268
LOX IMVI = system: LOX IMVI
HT-29 = system: HT-29
UO-31 = system: UO-31
OVCAR-4 = system: OVCAR-4
Hs-578T = system: Hs-578T
BT-549 = system: BT-549
KM12 = system: KM12
MDA-MB-231 = system: MDA-MB-231
T47D = system: T47D

Measured: GI50

CC1OC(=O)c2ccccc2NC1=O (configuration not stated)
inactive: HL-60 > 100 µM | RPMI-8226 > 100 µM | NCI-H522 > 100 µM | NCI-H23 > 100 µM | IGROV-1 > 100 µM | NCI-H460 > 100 µM | SR > 100 µM | U-251 > 100 µM | SF-268 > 100 µM | LOX IMVI > 100 µM | HT-29 > 100 µM | UO-31 > 100 µM | OVCAR-4 > 100 µM | Hs-578T > 100 µM | BT-549 > 100 µM | KM12 > 100 µM | MDA-MB-231 > 100 µM
> 100 µM: HCT-15

Cc1ccc(C)n1-c1ccccc1C1C=Cn2c(=O)oc3c(OC(C)C)c(OC(C)C)c(O)c1c32 (configuration not stated)
15.7 µM: HCT-15
inactive: HL-60 8.75 µM | RPMI-8226 4.9 µM | NCI-H522 7.06 µM | NCI-H23 13.3 µM | IGROV-1 54 µM | NCI-H460 22.3 µM | U-251 25.8 µM | SF-268 43.8 µM | LOX IMVI 14.2 µM | HT-29 18.2 µM | UO-31 12.7 µM | OVCAR-4 32.6 µM | Hs-578T 56 µM | BT-549 43.5 µM | KM12 8.11 µM | MDA-MB-231 5.13 µM

O=C(/C=C/c1ccc2c(c1)OCO2)c1ccc(O)cc1
13.4 µM: HCT-15
inactive: HL-60 5.25 µM | NCI-H522 3.01 µM | NCI-H23 15.5 µM | IGROV-1 15.1 µM | NCI-H460 15 µM | SR 1.17 µM | U-251 13.8 µM | SF-268 45.9 µM | LOX IMVI 11.2 µM | HT-29 15.4 µM | UO-31 13.4 µM | OVCAR-4 18.4 µM | Hs-578T 17.6 µM | BT-549 14.2 µM | MDA-MB-231 17.4 µM

CCOC(=O)C(O)(CC1=NC(C(=O)OC)(C(=O)OC)C(c2cccc(C=O)c2)O1)C(=O)OCC (configuration not stated)
inactive: HL-60 25.3 µM | RPMI-8226 > 100 µM | NCI-H23 > 100 µM | IGROV-1 > 100 µM | NCI-H460 > 100 µM | SR > 100 µM | T47D > 100 µM | U-251 > 100 µM | LOX IMVI > 100 µM | HT-29 > 100 µM | UO-31 > 100 µM | OVCAR-4 > 100 µM | BT-549 > 100 µM | KM12 > 100 µM
> 100 µM: HCT-15

N#CC(N)c1ccc(OCCCCCCCCCCOc2ccc(C(N)C#N)cc2)cc1 (configuration not stated)
> 100 µM: HCT-15
inactive: HL-60 52.1 µM | NCI-H522 > 100 µM | NCI-H23 > 100 µM | IGROV-1 > 100 µM | NCI-H460 > 100 µM | T47D 84.1 µM | U-251 65.3 µM | SF-268 > 100 µM | LOX IMVI > 100 µM | HT-29 > 100 µM | UO-31 > 100 µM | OVCAR-4 > 100 µM | Hs-578T > 100 µM | BT-549 > 100 µM | KM12 > 100 µM | MDA-MB-231 > 100 µM

CN(/N=C/c1cccc2cccnc12)c1ccc(Cl)cc1[N+](=O)[O-]
> 100 µM: HCT-15
inactive: HL-60 > 100 µM | RPMI-8226 > 100 µM | NCI-H522 > 100 µM | NCI-H23 > 100 µM | IGROV-1 > 100 µM | NCI-H460 45.7 µM | SR > 100 µM | U-251 > 100 µM | SF-268 > 100 µM | HT-29 59.4 µM | UO-31 > 100 µM | OVCAR-4 > 100 µM | Hs-578T 81.5 µM | BT-549 > 100 µM | KM12 96.8 µM | MDA-MB-231 > 100 µM

CC(C)(CNC(=O)/C(Cl)=C(/Cl)C(=O)O)CNC(=O)/C(Cl)=C(/Cl)C(=O)O
> 10 µM: HCT-15
inactive: HL-60 34 µM | RPMI-8226 22.6 µM | NCI-H522 29.1 µM | IGROV-1 > 100 µM | NCI-H460 > 100 µM | SR 44.6 µM | T47D 92.7 µM | U-251 > 100 µM | LOX IMVI 28.8 µM | HT-29 48.5 µM | UO-31 > 100 µM | OVCAR-4 > 100 µM | Hs-578T > 100 µM | BT-549 > 100 µM | KM12 > 100 µM

CCCCCC/C=C/C#CCCCCCCCC(=O)O
inactive: HL-60 > 100 µM | RPMI-8226 > 100 µM | NCI-H522 > 100 µM | NCI-H23 > 100 µM | IGROV-1 > 100 µM | NCI-H460 > 100 µM | T47D > 100 µM | U-251 > 100 µM | SF-268 > 100 µM | LOX IMVI > 100 µM | HT-29 > 100 µM | OVCAR-4 > 100 µM | Hs-578T > 100 µM | BT-549 > 100 µM | KM12 > 100 µM | MDA-MB-231 > 100 µM
> 100 µM: HCT-15

C=C1[C@@H]([C@@]2(C)C=CC(=O)C(C)(C)[C@@H]2CC(=O)OC)CC[C@@]2(C)[C@H](c3ccoc3)OC(=O)[C@H]3O[C@]132 [ANDIROBIN]
> 100 µM: HCT-15
inactive: HL-60 62.8 µM | NCI-H522 > 100 µM | NCI-H23 > 100 µM | IGROV-1 > 100 µM | NCI-H460 > 100 µM | T47D 94.4 µM | U-251 > 100 µM | SF-268 > 100 µM | LOX IMVI > 100 µM | HT-29 > 100 µM | UO-31 73.8 µM | OVCAR-4 > 100 µM | Hs-578T > 100 µM | BT-549 > 100 µM | KM12 > 100 µM | MDA-MB-231 > 100 µM

COC(=O)Cc1cccc2c(=O)c(S(=O)(=O)NC(=O)Nc3ccc(Cl)cc3)c(-c3ccccc3)oc12
inactive: NCI-H522 16.4 µM | NCI-H23 57 µM | IGROV-1 38.5 µM | NCI-H460 32.7 µM | SR 36.9 µM | U-251 50.6 µM | SF-268 73.5 µM | LOX IMVI 13.5 µM | HT-29 74.5 µM | UO-31 25.8 µM | OVCAR-4 > 100 µM | Hs-578T > 100 µM | BT-549 55.6 µM | KM12 34.4 µM | MDA-MB-231 29.2 µM
8.75 µM: HCT-15

Nc1ccc(Oc2ccc(C3(c4ccc(Oc5ccc(N)cc5)cc4)C4CC5CC(C4)CC3C5)cc2)cc1
inactive: HL-60 5 µM | RPMI-8226 3 µM | NCI-H522 11 µM | NCI-H23 13.8 µM | IGROV-1 12.8 µM | NCI-H460 2.42 µM | SR 3.42 µM | SF-268 20.3 µM | LOX IMVI 7.31 µM | UO-31 3.01 µM | OVCAR-4 8.71 µM | Hs-578T > 22.1 µM | BT-549 11.6 µM | KM12 3.77 µM | MDA-MB-231 17 µM
4.94 µM: HCT-15
active: U-251 0.231 µM | HT-29 0.489 µM

Cc1ccc(C2c3c(n(C)c(=O)n(C)c3=O)OC(N(C)C)(N(C)C)C2(F)F)cc1 (configuration not stated)
> 100 µM: HCT-15
inactive: RPMI-8226 > 100 µM | NCI-H23 > 100 µM | NCI-H460 > 100 µM | T47D > 100 µM | U-251 > 100 µM | SF-268 > 100 µM | LOX IMVI > 100 µM | UO-31 > 100 µM | OVCAR-4 51.4 µM | BT-549 > 100 µM | KM12 > 100 µM | MDA-MB-231 > 100 µM
